Results on 23 compounds are retold here after patent US20240083900A1, “PYRAZOLO[1,5-A]PYRAZINE DERIVATIVES AS BTK INHIBITORS” (BIOGEN MA INC., priority 2020, published 2024).

Experiment [1] deals with BTK (Homo sapiens (Human), UniProt Q06187). In words: In Vitro BTK Kinase Assay: Btk-PolyGAT-LS Assay. In kind it is biochemical. The conditions noted are these: BTK enzyme 0.25 nM, ATP 10 μM, polyGAT 100 nM, 30 minutes incubation, TRF readout; read-out: IC50. The gist of the method:
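Human BTK activity was measured with final 10 μM ATP and 100 nM polyGAT substrate in pH 7.5 Tris buffer with 10 mM MgCl2, DTT, Triton X-100 and casein.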

The test system of experiment [2] is CD69 expression on CD19+ B cells in human whole blood stimulated with anti-human IgD. Kind of experiment: In Vitro whole blood CD69 Assay. Type of experiment: cell-based. Particulars: human heparinized whole blood, anti-human IgD stimulation overnight, percentage of CD19+ B cells expressing CD69, flow cytometry. (In flow cytometry, cells or beads pass a laser one at a time.)

Setting [3] is: Homo sapiens, B-cell, read-out: IC50.

Where two headings read alike, the source gives them in different places.

Chain of BTK (Q06187 whole entry): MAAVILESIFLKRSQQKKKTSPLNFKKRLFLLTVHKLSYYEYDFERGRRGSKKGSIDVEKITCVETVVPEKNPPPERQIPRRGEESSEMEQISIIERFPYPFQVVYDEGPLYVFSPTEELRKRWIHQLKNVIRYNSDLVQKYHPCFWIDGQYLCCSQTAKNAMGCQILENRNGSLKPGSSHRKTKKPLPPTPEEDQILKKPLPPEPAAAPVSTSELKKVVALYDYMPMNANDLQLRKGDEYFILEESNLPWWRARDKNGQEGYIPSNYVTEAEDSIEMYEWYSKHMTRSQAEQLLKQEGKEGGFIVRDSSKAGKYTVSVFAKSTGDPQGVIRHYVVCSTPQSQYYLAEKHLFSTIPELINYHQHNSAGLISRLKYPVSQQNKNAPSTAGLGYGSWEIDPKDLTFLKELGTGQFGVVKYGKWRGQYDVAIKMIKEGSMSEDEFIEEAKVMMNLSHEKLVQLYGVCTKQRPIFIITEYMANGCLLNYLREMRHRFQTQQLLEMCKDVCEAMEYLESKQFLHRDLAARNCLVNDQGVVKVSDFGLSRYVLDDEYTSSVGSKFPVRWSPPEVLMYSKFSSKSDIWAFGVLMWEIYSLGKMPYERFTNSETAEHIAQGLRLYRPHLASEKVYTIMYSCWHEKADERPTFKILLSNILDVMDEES

For the compound `C#CC(=O)NCC1CCCCN1c1nc(-c2cnn(C)c2)cn2nccc12` (single isomer, unassigned) [Example 26 E2, N-[[1-[6-(1-methylpyrazol-4-yl)pyrazolo[1,5-a]pyrazin-4-yl]-2-piperidyl]methyl]prop-2-ynamide], the IC50 (in general, the concentration at which inhibition is half-maximal) in experiment [1] is less than 1 nM; in experiment [2] (listed as 26 E2, read-out: IC50), less than 1000 nM.

For the compound `C=CC(=O)N(C)[C@@H]1COC[C@H](Oc2nc(-c3cnn(C)c3)cn3nccc23)C1` (racemic) [Example 96, N-methyl-N-((cis)-5-((6-(1-methyl-1H-pyrazol-4-yl)pyrazolo[1,5-a]pyrazin-4-yl)oxy)tetrahydro-2H-pyran-3-yl)acrylamide], the IC50 in experiment [1] is less than 1 nM; in experiment [2] (setting [3]), less than 1000 nM.

With `C=CC(=O)NCC1CCCCN1c1nc(-c2cnn(C)c2)cn2nccc12` (stereo not shown) [Example 27, N-[[1-[6-(1-methylpyrazol-4-yl)pyrazolo[1,5-a]pyrazin-4-yl]-2-piperidyl]methyl]prop-2-enamide], the IC50 in experiment [1] fell in the range of 10 to 1000 nM; in experiment [2] (setting [3]) it was 1000 to 10000 nM.

For `C=CC(=O)N(C)[C@H]1C[C@@](C)(Oc2nc(-c3cnn(C)c3)cn3nccc23)[C@H]1C` (single isomer, unassigned) [Example 110], the IC50 in experiment [1] was less than 1 nM; in experiment [2] (Homo sapiens, B-cell), less than 1000 nM.

Regarding `C#CC(=O)N1CCC(Oc2nc(-c3cnn(C)c3)cn3nccc23)CC1` [Example 1, 1-[4-[6-(1-methylpyrazol-4-yl)pyrazolo[1,5-a]pyrazin-4-yl]oxy-1-piperidyl]prop-2-yn-1-one], the IC50 in experiment [1] was 1 to 10 nM; in experiment [2] (setting [3]), greater than 10000 nM.

For `C[C@H]1O[C@@H]1C(=O)N1CC[C@@H]2[C@H]1C[C@]2(C)Oc1nc(-c2cnn(C)c2)cn2nccc12` (single isomer, unassigned) [Example 193], the IC50 fell in the range of 1 to 10 nM in experiment [1] and 1000 to 10000 nM in experiment [2] (setting [3]).

Regarding `C=CC(=O)N1CCC[C@@H](Oc2nc(-c3ccc(=O)n(C)c3)cn3nccc23)CC1` (single isomer, unassigned) [Example 71 E2], the IC50 lay in the range of 10 to 1000 nM in experiment [1] and 1000 to 10000 nM in experiment [2] (setting [3]).

`C=CC(=O)N1CCOC[C@H](Oc2nc(-c3cnn(C)c3)cn3nccc23)C1` [Example 58, (R)-1-(6-((6-(1-methyl-1H-pyrazol-4-yl)pyrazolo[1,5-a]pyrazin-4-yl)oxy)-1,4-oxazepan-4-yl)prop-2-en-1-one]: the results for the IC50 in experiment [1] and in experiment [2] (setting [3]) were 10 to 1000 nM and greater than 10000 nM, respectively.

For `C=CS(=O)(=O)N1CC[C@@H](Oc2nc(-c3cnn(C)c3)cn3nccc23)C1` [Example 12, (R)-6-(1-methyl-1H-pyrazol-4-yl)-4-((1-(vinylsulfonyl)pyrrolidin-3-yl)oxy)pyrazolo[1,5-a]pyrazine], the values for the IC50 in experiment [1] and in experiment [2] (setting [3]) were 1 to 10 nM and greater than 10000 nM, respectively.

Regarding `C=CC(=O)N(C)[C@H]1C[C@H](Oc2nc(-c3cnn(C)c3)cn3ncc(C(F)F)c23)C1` [Example 64, N-((trans)-3-((3-(difluoromethyl)-6-(1-methyl-1H-pyrazol-4-yl)pyrazolo[1,5-a]pyrazin-4-yl)oxy)cyclobutyl)-N-methylacrylamide], the values for the IC50 in experiment [1] and in experiment [2] (setting [3]) were 1 to 10 nM and less than 1000 nM, respectively.

Turning to `C[C@@H]1O[C@H]1C(=O)N1CC[C@@H]2[C@H]1C[C@@]2(C)Oc1nc(-c2cnn(C)c2)cn2nccc12` [Example 192, ((1R,5R,6R)-6-methyl-6-((6-(1-methyl-1H-pyrazol-4-yl)pyrazolo[1,5-a]pyrazin-4-yl)oxy)-2-azabicyclo[3.2.0]heptan-2-yl)((2R,3S)-3-methyloxiran-2-yl)methanone], the results for the IC50 in experiment [1] and in experiment [2] (setting [3]) were 10 to 1000 nM and 1000 to 10000 nM, respectively.

As for `C=CC(=O)N(C)[C@@H]1C[C@@](C)(Oc2nc(-c3cnn(C)c3)cn3nccc23)[C@@H]1C` (single isomer, unassigned) [Example 107], the values for the IC50 in experiment [1] and in experiment [2] (setting [3]) were 1 to 10 nM and less than 1000 nM, respectively.

In the case of `C=CC(=O)N1CCCC(Oc2nc(-c3ccnc(OC)c3)cn3nccc23)CC1` (single isomer, unassigned) [Example 72 E1, 1-(4-((6-(2-methoxypyridin-4-yl)pyrazolo[1,5-a]pyrazin-4-yl)oxy)azepan-1-yl)prop-2-en-1-one], the IC50 in experiment [1] is less than 1 nM; in experiment [2] (setting [3]) it was 1000 to 10000 nM.

`CN(C(=O)/C=C/C#N)[C@H]1CC[C@@H](Oc2nc(-c3cnn(C)c3)cn3nccc23)C1` (racemic) [Example 150, rac-(E)-3-cyano-N-methyl-N-((1R,3S)-3-((6-(1-methyl-1H-pyrazol-4-yl)pyrazolo[1,5-a]pyrazin-4-yl)oxy)cyclopentyl)acrylamide]: the results for the IC50 in experiment [1] and in experiment [2] (setting [3]) were less than 1 nM and less than 1000 nM, respectively.

Take `C=CC(=O)N1CCC[C@@](F)(COc2nc(-c3cnn(C)c3)cn3nccc23)C1` [Example 188, (S)-1-(3-fluoro-3-(((6-(1-methyl-1H-pyrazol-4-yl)pyrazolo[1,5-a]pyrazin-4-yl)oxy)methyl)piperidin-1-yl)prop-2-en-1-one]: the values for the IC50 in experiment [1] and in experiment [2] (setting [3]) were 1 to 10 nM and less than 1000 nM, respectively.

On to `CC#CC(=O)N[C@H]1CC[C@@H](Oc2nc(-c3cnn(C)c3)cn3ncc(F)c23)C1` [Example 95, N-((1S,3R)-3-((3-fluoro-6-(1-methyl-1H-pyrazol-4-yl)pyrazolo[1,5-a]pyrazin-4-yl)oxy)cyclopentyl) but-2-ynamide], for which the IC50 in experiment [1] was less than 1 nM; in experiment [2] (setting [3]), less than 1000 nM.

With `C=CC(=O)N1[C@H]2CC[C@@H]1[C@H](Oc1nc(-c3cnn(C)c3)cn3nccc13)C2` [Example 234, 1-((1R,2R,4S)-2-((6-(1-methyl-1H-pyrazol-4-yl)pyrazolo[1,5-a]pyrazin-4-yl)oxy)-7-azabicyclo[2.2.1]heptan-7-yl)prop-2-en-1-one], the IC50 in experiment [1] is less than 1 nM; in experiment [2] (setting [3]), 1000 to 10000 nM.

On to `C#CC(=O)N1CCC[C@H](COc2nc(-c3cnn(C)c3)cn3nccc23)C1` [Example 16, (S)-1-(3-(((6-(1-methyl-1H-pyrazol-4-yl)pyrazolo[1,5-a]pyrazin-4-yl)oxy)methyl)piperidin-1-yl)prop-2-yn-1-one], for which the IC50 in experiment [1] is less than 1 nM; in experiment [2] (setting [3]), less than 1000 nM.

Take `C=CS(=O)(=O)N1CCC[C@H](Oc2nc(-c3cnn(C)c3)cn3nccc23)CC1` [Example 33, (S)-6-(1-methyl-1H-pyrazol-4-yl)-4-((1-(vinylsulfonyl)azepan-4-yl)oxy)pyrazolo[1,5-a]pyrazine]: the IC50 is 1 to 10 nM in experiment [1] and 1000 to 10000 nM in experiment [2] (setting [3]).

For the compound `C=CC(=O)N1CC[C@H]2[C@@H](Oc3nc(-c4cnn(C)c4)cn4nccc34)C(C)(C)[C@H]21` [Example 171, 1-((1S,5R,6R)-7,7-dimethyl-6-((6-(1-methyl-1H-pyrazol-4-yl)pyrazolo[1,5-a]pyrazin-4-yl)oxy)-2-azabicyclo[3.2.0]heptan-2-yl)prop-2-en-1-one], the results for the IC50 in experiment [1] and in experiment [2] (setting [3]) were 10 to 1000 nM and 1000 to 10000 nM, respectively.

In the case of `C=CC(=O)N1CC(Oc2nc(-c3cnn(C)c3)cn3nccc23)C1` [Example 9, 1-(3-((6-(1-methyl-1H-pyrazol-4-yl)pyrazolo[1,5-a]pyrazin-4-yl)oxy)azetidin-1-yl)prop-2-en-1-one], the IC50 is 10 to 1000 nM in experiment [1] and greater than 10000 nM in experiment [2] (setting [3]).

With `C=CC(=O)N1CCO[C@@](C)(COc2nc(-c3cnn(C)c3)cn3nccc23)C1` (single isomer, unassigned) [Example 118, (R) or (S)-1-(2-methyl-2-(((6-(1-methyl-1H-pyrazol-4-yl)pyrazolo[1,5-a]pyrazin-4-yl)oxy)methyl)morpholino)prop-2-en-1-one], the IC50 was less than 1 nM in experiment [1] and less than 1000 nM in experiment [2] (setting [3]).

As for `C#CC(=O)N1CC[C@@H](Oc2nc(-c3cnn(C)c3)cn3nccc23)C1` [Example 13, (R)-1-(3-((6-(1-methyl-1H-pyrazol-4-yl)pyrazolo[1,5-a]pyrazin-4-yl)oxy)pyrrolidin-1-yl)prop-2-yn-1-one], the IC50 in experiment [1] is less than 1 nM; in experiment [2] (setting [3]), less than 1000 nM.
